According to paper PMC6128713 (Saudi Pharmaceutical Journal : SPJ, 2018):
Like-named read-outs stand apart in the source and are kept apart here.

What was measured:
[1] = system: glutamate-induced 45Ca2+ uptake into synaptosomes of rat brain cortex; test: Effect on glutamate-induced 45Ca2+ uptake into synaptosomes of rat brain cortex; assay type: biochemical, Wistar rats; details: for Percentage 45Ca2+ of Control (Control – 100%): 200 μM glutamate, 5 min, 37 °C; for overall inhibiting activity on calcium ion uptake, in words: whole concentration range 0.01–100 μM
[2] = assay type: physicochemical

## CN1CCc2c(c3ccccc3n2CCc2n[nH]c(=S)n2C)C1 [Compound I, 4-Methyl-5-[2-(2-methyl-1,2,3,4-tetrahydropyrido[4,3-b]indol-5-yl)ethyl]-2,4-dihydro[1,2,4]triazole-3-thione]
[1]; compound 0.1 μM
  Percentage 45Ca2+ of Control (Control – 100%): 90.5 ± 5.1%
[1]; compound 0.5 μM
  Percentage 45Ca2+ of Control (Control – 100%): 94.8 ± 3.0%
[1]; compound 1 μM
  Percentage 45Ca2+ of Control (Control – 100%): 94.5 ± 11.8%
[1]; compound 5 μM
  Percentage 45Ca2+ of Control (Control – 100%): 80.0 ± 3.0%
[1]; compound 10 μM
  Percentage 45Ca2+ of Control (Control – 100%): 69.9 ± 4.4%
[1]; compound 50 μM
  Percentage 45Ca2+ of Control (Control – 100%): 90.0 ± 6.1%
[1]; compound 100 μM
  Percentage 45Ca2+ of Control (Control – 100%): 104.2 ± 12.8%
[1]; concentration of 0.1–1 μM
  effect on glutamate-induced calcium ion uptake, in words: did not affect
[1]; concentrations of 5–50 μM
  effect on glutamate-induced calcium ion uptake, in words: inhibited calcium ion uptake
[2]; 1-octanol, 293.15 K
  mole fraction solubility (x): 2.16 x · 10^4
[2]; 1-octanol, 293.15–313.15 K
  A, parameter of the correlation equation lnx=A-B/T: 5.83 ± 0.11
  B, parameter of the correlation equation lnx=A-B/T: 4179 ± 45
[2]; 1-octanol, 298.15 K
  mole fraction solubility (x): 2.74 x · 10^4
  ΔGsol0, standard molar dissolution Gibbs energy: 4.85 kcal/mol
  ΔHsol0, standard molar dissolution enthalpy: 8.29 kcal/mol
  ΔSsol0, standard molar dissolution entropy: 69.9 J/mol⋅K
[2]; 1-octanol, 303.15 K
  mole fraction solubility (x): 3.48 x · 10^4
[2]; 1-octanol, 308.15 K
  mole fraction solubility (x): 4.28 x · 10^4
[2]; 1-octanol, 313.15 K
  mole fraction solubility (x): 5.40 x · 10^4
[2]; Buffer pH 7.4, 293.15 K
  mole fraction solubility (x): 1.69 x · 10^6
[2]; Buffer pH 7.4, 293.15–313.15 K
  A, parameter of the correlation equation lnx=A-B/T: −7.76 ± 0.04
  B, parameter of the correlation equation lnx=A-B/T: 1649 ± 12
[2]; Buffer pH 7.4, 298.15 K
  mole fraction solubility (x): 1.86 x · 10^6
  ΔGsol0, standard molar dissolution Gibbs energy: 7.82 kcal/mol
  ΔHsol0, standard molar dissolution enthalpy: 3.27 kcal/mol
  ΔSsol0, standard molar dissolution entropy: -63.73 J/mol⋅K
[2]; Buffer pH 7.4, 303.15 K
  mole fraction solubility (x): 2.04 x · 10^6
[2]; Buffer pH 7.4, 308.15 K
  mole fraction solubility (x): 2.23 x · 10^6
[2]; Buffer pH 7.4, 313.15 K
  mole fraction solubility (x): 2.42 x · 10^6
[2]; Hexane, 293.15 K
  mole fraction solubility (x): 7.96 x · 10^6
[2]; Hexane, 293.15–313.15 K
  A, parameter of the correlation equation lnx=A-B/T: −1.25 ± 0.18
  B, parameter of the correlation equation lnx=A-B/T: 3073 ± 39
[2]; Hexane, 298.15 K
  mole fraction solubility (x): 9.41 x · 10^6
  ΔGsol0, standard molar dissolution Gibbs energy: 6.84 kcal/mol
  ΔHsol0, standard molar dissolution enthalpy: 6.12 kcal/mol
  ΔSsol0, standard molar dissolution entropy: -6.7 J/mol⋅K
[2]; Hexane, 303.15 K
  mole fraction solubility (x): 11.41 x · 10^6
[2]; Hexane, 308.15 K
  mole fraction solubility (x): 13.26 x · 10^6
[2]; Hexane, 313.15 K
  mole fraction solubility (x): 15.50 x · 10^6
[2]; standard temperature
  increase of solubility in hexane over buffer solution: 5 times

## Cc1ccc2c(c1)c1c(n2CCc2n[nH]c(=S)n2C)CCN(C)C1 [Compound II, 5-[2-(2,8-Dimethyl-1,2,3,4-tetrahydropyrido[4,3-b]indol-5-yl)ethyl]-4-methyl-2,4-dihydro [1,2,4] triazole-3-thione]
[1]; compound 0.01 μM
  Percentage 45Ca2+ of Control (Control – 100%): 84.7 ± 1.2%
[1]; compound 0.1 μM
  Percentage 45Ca2+ of Control (Control – 100%): 85.5 ± 3.9%
[1]; compound 0.5 μM
  Percentage 45Ca2+ of Control (Control – 100%): 102.6 ± 3.6%
[1]; compound 1 μM
  Percentage 45Ca2+ of Control (Control – 100%): 93.6 ± 3.6%
[1]; compound 5 μM
  Percentage 45Ca2+ of Control (Control – 100%): 113.1 ± 7.6%
[1]; compound 10 μM
  Percentage 45Ca2+ of Control (Control – 100%): 109.7 ± 7.5%
[1]; compound 50 μM
  Percentage 45Ca2+ of Control (Control – 100%): 118.6 ± 2.7%
[1]; compound 100 μM
  Percentage 45Ca2+ of Control (Control – 100%): 127.1 ± 17.1%
[1]; concentration of 0.01–0.1 μM
  inhibition of glutamate-induced uptake of calcium ions: ~15%
[1]
  overall inhibiting activity on calcium ion uptake, in words: potentiates the uptake at high concentrations
[2]; 1-octanol, 293.15 K
  mole fraction solubility (x): 0.89 x · 10^4
[2]; 1-octanol, 293.15–313.15 K
  A, parameter of the correlation equation lnx=A-B/T: 3.95 ± 0.23
  B, parameter of the correlation equation lnx=A-B/T: 3889 ± 69
[2]; 1-octanol, 298.15 K
  mole fraction solubility (x): 1.13 x · 10^4
  ΔGsol0, standard molar dissolution Gibbs energy: 5.38 kcal/mol
  ΔHsol0, standard molar dissolution enthalpy: 7.72 kcal/mol
  ΔSsol0, standard molar dissolution entropy: 32.9 J/mol⋅K
[2]; 1-octanol, 303.15 K
  mole fraction solubility (x): 1.39 x · 10^4
[2]; 1-octanol, 308.15 K
  mole fraction solubility (x): 1.68 x · 10^4
[2]; 1-octanol, 313.15 K
  mole fraction solubility (x): 2.11 x · 10^4
[2]; Buffer pH 7.4, 293.15 K
  mole fraction solubility (x): 1.64 x · 10^6
[2]; Buffer pH 7.4, 293.15–313.15 K
  A, parameter of the correlation equation lnx=A-B/T: −2.90 ± 0.22
  B, parameter of the correlation equation lnx=A-B/T: 3054 ± 67
[2]; Buffer pH 7.4, 298.15 K
  mole fraction solubility (x): 1.96 x · 10^6
  ΔGsol0, standard molar dissolution Gibbs energy: 7.79 kcal/mol
  ΔHsol0, standard molar dissolution enthalpy: 6.07 kcal/mol
  ΔSsol0, standard molar dissolution entropy: -24.2 J/mol⋅K
[2]; Buffer pH 7.4, 303.15 K
  mole fraction solubility (x): 2.27 x · 10^6
[2]; Buffer pH 7.4, 308.15 K
  mole fraction solubility (x): 2.70 x · 10^6
[2]; Buffer pH 7.4, 313.15 K
  mole fraction solubility (x): 3.21 x · 10^6
[2]; Hexane, 293.15 K
  mole fraction solubility (x): 1.42 x · 10^5
[2]; Hexane, 293.15–313.15 K
  A, parameter of the correlation equation lnx=A-B/T: −1.39 ± 0.17
  B, parameter of the correlation equation lnx=A-B/T: 2989 ± 49
[2]; Hexane, 298.15 K
  mole fraction solubility (x): 1.70 x · 10^5
  ΔGsol0, standard molar dissolution Gibbs energy: 6.5 kcal/mol
  ΔHsol0, standard molar dissolution enthalpy: 5.95 kcal/mol
  ΔSsol0, standard molar dissolution entropy: -7.7 J/mol⋅K
[2]; Hexane, 303.15 K
  mole fraction solubility (x): 2.02 x · 10^5
[2]; Hexane, 308.15 K
  mole fraction solubility (x): 2.35 x · 10^5
[2]; Hexane, 313.15 K
  mole fraction solubility (x): 2.72 x · 10^5

## CN1CCc2c(c3cc(F)ccc3n2CCc2n[nH]c(=S)n2C)C1 [Compound IV, 5-[2-(8-Fluoro-2-methyl-1,2,3,4-tetrahydropyrido[4,3-b]indol-5-yl)ethyl]-4-methyl-2,4-dihydro[1,2,4]triazole-3-thione]
[1]; compound 0.01 μM
  Percentage 45Ca2+ of Control (Control – 100%): 102.0 ± 9.8%
[1]; compound 0.1 μM
  Percentage 45Ca2+ of Control (Control – 100%): 78.7 ± 10.3%
[1]; compound 0.5 μM
  Percentage 45Ca2+ of Control (Control – 100%): 78.7 ± 8.0%
[1]; compound 1 μM
  Percentage 45Ca2+ of Control (Control – 100%): 83.2 ± 10.9%
[1]; compound 5 μM
  Percentage 45Ca2+ of Control (Control – 100%): 94.7 ± 8.5%
[1]; compound 10 μM
  Percentage 45Ca2+ of Control (Control – 100%): 93.4 ± 6.9%
[1]; compound 50 μM
  Percentage 45Ca2+ of Control (Control – 100%): 96.9 ± 6.0%
[1]; compound 100 μM
  Percentage 45Ca2+ of Control (Control – 100%): 87.1 ± 11.5%
[1]; concentration of 1 μM
  inhibition of glutamate-induced calcium ion uptake: ~17%
[1]; concentration of 0.1–1 μM
  effect on glutamate-induced calcium ion uptake, in words: can act as an inhibitor
[1]; concentration of 5–100 μM
  effect on glutamate-induced calcium ion uptake, in words: had no effect
[1]
  overall inhibiting activity on calcium ion uptake, in words: weak inhibitors of calcium ion uptake
[2]; 1-octanol, 293.15 K
  mole fraction solubility (x): 2.51 x · 10^4
[2]; 1-octanol, 293.15–313.15 K
  A, parameter of the correlation equation lnx=A-B/T: 3.65 ± 0.15
  B, parameter of the correlation equation lnx=A-B/T: 3501 ± 46
[2]; 1-octanol, 298.15 K
  mole fraction solubility (x): 3.01 x · 10^4
  ΔGsol0, standard molar dissolution Gibbs energy: 4.8 kcal/mol
  ΔHsol0, standard molar dissolution enthalpy: 6.96 kcal/mol
  ΔSsol0, standard molar dissolution entropy: 30.2 J/mol⋅K
[2]; 1-octanol, 303.15 K
  mole fraction solubility (x): 3.68 x · 10^4
[2]; 1-octanol, 308.15 K
  mole fraction solubility (x): 4.39 x · 10^4
[2]; 1-octanol, 313.15 K
  mole fraction solubility (x): 5.30 x · 10^4
[2]; Buffer pH 7.4, 293.15 K
  mole fraction solubility (x): 8.34 x · 10^6
[2]; Buffer pH 7.4, 293.15–313.15 K
  A, parameter of the correlation equation lnx=A-B/T: −2.96 ± 0.09
  B, parameter of the correlation equation lnx=A-B/T: 2558 ± 27
[2]; Buffer pH 7.4, 298.15 K
  mole fraction solubility (x): 9.60 x · 10^6
  ΔGsol0, standard molar dissolution Gibbs energy: 6.84 kcal/mol
  ΔHsol0, standard molar dissolution enthalpy: 5.09 kcal/mol
  ΔSsol0, standard molar dissolution entropy: -24.6 J/mol⋅K
[2]; Buffer pH 7.4, 303.15 K
  mole fraction solubility (x): 11.11 x · 10^6
[2]; Buffer pH 7.4, 308.15 K
  mole fraction solubility (x): 12.66 x · 10^6
[2]; Buffer pH 7.4, 313.15 K
  mole fraction solubility (x): 14.60 x · 10^6
[2]; Hexane, 293.15 K
  mole fraction solubility (x): 3.85 x · 10^4
[2]; Hexane, 293.15–313.15 K
  A, parameter of the correlation equation lnx=A-B/T: 1.09 ± 0.1
  B, parameter of the correlation equation lnx=A-B/T: 2624 ± 30
[2]; Hexane, 298.15 K
  mole fraction solubility (x): 4.47 x · 10^4
  ΔGsol0, standard molar dissolution Gibbs energy: 4.57 kcal/mol
  ΔHsol0, standard molar dissolution enthalpy: 5.21 kcal/mol
  ΔSsol0, standard molar dissolution entropy: 9.1 J/mol⋅K
[2]; Hexane, 303.15 K
  mole fraction solubility (x): 5.11 x · 10^4
[2]; Hexane, 308.15 K
  mole fraction solubility (x): 5.96 x · 10^4
[2]; Hexane, 313.15 K
  mole fraction solubility (x): 6.81 x · 10^4

## Cc1ccc2c(c1)c1c(n2CCc2ccc(C)nc2)CCN(C)C1 [Dimebon, reference compound]
[1]; compound 0.1 μM
  Percentage 45Ca2+ of Control (Control – 100%): 120.5 ± 3.3%
[1]; compound 0.5 μM
  Percentage 45Ca2+ of Control (Control – 100%): 64.4 ± 12.4%
[1]; compound 1 μM
  Percentage 45Ca2+ of Control (Control – 100%): 61.3 ± 8.1%
[1]; compound 5 μM
  Percentage 45Ca2+ of Control (Control – 100%): 83.2 ± 4.1%
[1]; compound 10 μM
  Percentage 45Ca2+ of Control (Control – 100%): 89.3 ± 1.2%
[1]; compound 50 μM
  Percentage 45Ca2+ of Control (Control – 100%): 98.7 ± 8.8%
[1]; compound 100 μM
  Percentage 45Ca2+ of Control (Control – 100%): 132.0 ± 2.9%
